Measurements: ChEMBL document CHEMBL5375967 (J Med Chem, 2023)
Values after ≈ are worked out from the molar mass of the structure shown. Active and inactive are the calls of the source. The rule behind the calls is not given here.

Columns and labels:
[1] = Half life in Wistar rat at 1 mg/kg, iv measured upto 24 hrs by LC-MS/MS analysis; assay type: ADME, organism-based; details: in vivo
[2] = molecular target: T1, Voltage-gated inwardly rectifying potassium channel KCNH2 (Homo sapiens, UniProt Q12809)
T1 sequence (Q12809 whole entry): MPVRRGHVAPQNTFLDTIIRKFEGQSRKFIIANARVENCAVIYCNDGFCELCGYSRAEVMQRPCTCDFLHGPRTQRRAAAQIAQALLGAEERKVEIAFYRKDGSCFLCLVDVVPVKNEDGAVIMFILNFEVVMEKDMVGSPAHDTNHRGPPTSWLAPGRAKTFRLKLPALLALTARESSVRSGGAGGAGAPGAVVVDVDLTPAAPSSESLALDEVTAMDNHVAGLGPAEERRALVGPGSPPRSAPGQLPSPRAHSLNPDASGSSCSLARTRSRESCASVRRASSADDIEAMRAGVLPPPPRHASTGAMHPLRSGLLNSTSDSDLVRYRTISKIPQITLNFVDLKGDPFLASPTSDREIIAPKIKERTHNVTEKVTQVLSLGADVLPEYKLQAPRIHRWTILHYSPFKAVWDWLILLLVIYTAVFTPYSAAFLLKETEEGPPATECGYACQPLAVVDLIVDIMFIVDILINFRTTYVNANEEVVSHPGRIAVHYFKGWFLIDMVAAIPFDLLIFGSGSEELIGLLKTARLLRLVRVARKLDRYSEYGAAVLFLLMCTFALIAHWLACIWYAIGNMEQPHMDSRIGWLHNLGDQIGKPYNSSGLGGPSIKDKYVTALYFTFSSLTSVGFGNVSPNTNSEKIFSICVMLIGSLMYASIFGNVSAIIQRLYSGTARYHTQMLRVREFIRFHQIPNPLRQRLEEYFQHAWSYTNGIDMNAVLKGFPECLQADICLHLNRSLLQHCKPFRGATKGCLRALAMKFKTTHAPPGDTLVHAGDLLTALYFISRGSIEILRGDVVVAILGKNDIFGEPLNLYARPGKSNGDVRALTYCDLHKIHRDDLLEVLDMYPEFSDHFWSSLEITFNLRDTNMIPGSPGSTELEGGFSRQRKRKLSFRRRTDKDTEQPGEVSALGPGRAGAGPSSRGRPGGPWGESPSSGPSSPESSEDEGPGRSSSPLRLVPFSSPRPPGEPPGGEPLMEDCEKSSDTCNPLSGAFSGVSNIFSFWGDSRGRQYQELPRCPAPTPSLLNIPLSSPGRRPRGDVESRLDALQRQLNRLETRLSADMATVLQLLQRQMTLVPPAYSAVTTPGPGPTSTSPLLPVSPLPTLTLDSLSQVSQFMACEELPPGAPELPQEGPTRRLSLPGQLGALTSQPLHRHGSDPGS

[3] = Volume of distribution at steady state in Wistar rat at 1 mg/kg, iv measured upto 24 hrs by LC-MS/MS analysis; assay type: ADME, organism-based; details: in vivo, read-out: Vdss
Mus musculus [4] = test: Antiarthritic activity in KRN passive serum-induced arthritis C57BL/6 mouse model assessed as reduction in macrophage numbers at 0.1 to 10 mg/kg, po bid measured on day 7 at 2 hrs after first dose and 14 hrs after second dose; assay type: functional, organism-based; details: dose 0.1-10 mg/kg, time 7.0 day
[5] = Clearance in C57BL/6 mouse at 1 mg/kg, iv measured upto 24 hrs by LC-MS/MS analysis; assay type: ADME, organism-based; details: in vivo
[6] = Solubility of compound in SGF at pH […]; assay type: physicochemical
[7] = Inhibition of neutrophil influx in arachidonic acid-stimulated skin inflammation 129S2/SvPasCrl mouse model assessed as effect on MPO level in skin at 0.3 mg/kg, po pretreated with compound for 4 hrs followed by arachidonic acid stimulation and measured after 1 hr; assay type: functional; details: time 5 hrs
Mus musculus [8] = test: Antiarthritic activity in KRN passive serum-induced arthritis C57BL/6 mouse model assessed as reduction in joint damage at 0.1 to 10 mg/kg, po bid measured on day 7 at 2 hrs after first dose and 14 hrs after second dose; assay type: functional, organism-based; details: dose 0.1-10 mg/kg, time 7.0 day
in vivo [9] = details: Sprague-Dawley, rat, iv, 1 mg/kg
[10] = Inhibition of neutrophil influx in arachidonic acid-stimulated skin inflammation 129S2/SvPasCrl mouse model assessed as effect on MPO level in skin at 3 mg/kg, po pretreated with compound for 4 hrs followed by arachidonic acid stimulation and measured after 1 hr; assay type: functional; details: time 5 hrs
[11] = Clearance in Wistar rat at 1 mg/kg, iv measured upto 24 hrs by LC-MS/MS analysis; assay type: ADME, organism-based; details: in vivo
[12] = MRT in dog at 1 mg/kg, iv measured upto 24 hrs by LC-MS/MS analysis; assay type: ADME, organism-based, Canis lupus familiaris; details: in vivo
Mus musculus [13] = test: Antiarthritic activity in KRN passive serum-induced arthritis C57BL/6 mouse model assessed as reduction in neutrophil numbers at 0.1 to 10 mg/kg, po bid measured on day 7 at 2 hrs after first dose and 14 hrs after second dose; assay type: functional, organism-based; details: dose 0.1-10 mg/kg, time 7.0 day
in vivo [14] = details: Sprague-Dawley, rat, iv, 1 mg/kg; remark: listed apart in the source
[15] = Drug concentration in blood of arachidonic acid-induced skin inflammation 129S2/SvPasCrl mouse model at 0.3 mg/kg, po measured after 4 hrs; assay type: ADME, organism-based; details: read-out: Ct
[16] = molecular target: T2, Leukotriene A-4 hydrolase (Homo sapiens, UniProt P09960); test: Inhibition of LTA4H in human whole blood assessed as ionophore-stimulated LTB4 release preincubated for 15 mins by competitive immunoassay; assay type: tissue-based
T2 sequence (P09960 whole entry): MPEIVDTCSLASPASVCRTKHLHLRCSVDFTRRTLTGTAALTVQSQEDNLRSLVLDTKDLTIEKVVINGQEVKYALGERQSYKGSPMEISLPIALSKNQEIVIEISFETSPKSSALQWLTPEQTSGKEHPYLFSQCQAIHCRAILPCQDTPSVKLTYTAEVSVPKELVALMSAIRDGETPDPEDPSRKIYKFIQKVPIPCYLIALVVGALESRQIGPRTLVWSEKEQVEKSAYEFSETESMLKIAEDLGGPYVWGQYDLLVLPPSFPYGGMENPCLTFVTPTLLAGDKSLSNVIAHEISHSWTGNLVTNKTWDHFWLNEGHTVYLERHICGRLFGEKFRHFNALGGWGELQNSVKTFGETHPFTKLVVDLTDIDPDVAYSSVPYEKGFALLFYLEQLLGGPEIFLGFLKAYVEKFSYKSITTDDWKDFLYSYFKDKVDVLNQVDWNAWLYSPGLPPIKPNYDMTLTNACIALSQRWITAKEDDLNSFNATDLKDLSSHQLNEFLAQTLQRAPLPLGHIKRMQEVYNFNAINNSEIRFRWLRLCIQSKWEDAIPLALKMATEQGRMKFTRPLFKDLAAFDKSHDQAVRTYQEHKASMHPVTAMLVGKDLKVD

[17] = Cmax in dog at 3 mg/kg, po measured upto 24 hrs by LC-MS/MS analysis; assay type: ADME, organism-based, Canis lupus familiaris; parameters: time < 24 hrs, dose 3 mg/kg, route po; details: in vivo
[18] = Inhibition of arachidonic acid-stimulated LTB4 release in skin inflammation 129S2/SvPasCrl mouse model at 0.3 mg/kg, po pretreated with compound for 4 hrs followed by arachidonic acid stimulation and measured after 1 hr; assay type: functional
[19] = MRT in Wistar rat at 1 mg/kg, iv measured upto 24 hrs by LC-MS/MS analysis; assay type: ADME, organism-based; details: in vivo
[20] = Volume of distribution at steady state in C57BL/6 mouse at 1 mg/kg, iv measured upto 24 hrs by LC-MS/MS analysis; assay type: ADME, organism-based; details: in vivo, read-out: Vdss
[21] = AUC (0 to infinity) in dog at 3 mg/kg, po measured upto 24 hrs by LC-MS/MS analysis; assay type: ADME, organism-based, Canis lupus familiaris; parameters: time < 24 hrs, dose 3 mg/kg, route po; details: in vivo
[22] = Inhibition of arachidonic acid-stimulated LTB4 release in skin inflammation 129S2/SvPasCrl mouse model at 3 mg/kg, po pretreated with compound for 4 hrs followed by arachidonic acid stimulation and measured after 1 hr; assay type: functional; details: time 5 hrs
[23] = Metabolic stability in dog hepatocyte assessed as intrinsic clearance; assay type: ADME, cell-based, Canis lupus familiaris; details: hepatocytes
physchem = details: buffer, pH 6.8
in vivo [24] = details: C57BL/6, mouse, in vivo, po, 10 mg/kg
in vitro [25] = details: dog, MDCK
Mus musculus [26] = test: Antiarthritic activity in KRN passive serum-induced arthritis C57BL/6 mouse model assessed as reduction in cellularity at 0.1 to 10 mg/kg, po bid measured on day 7 at 2 hrs after first dose and 14 hrs after second dose; assay type: functional, organism-based; details: dose 0.1-10 mg/kg, time 7.0 day
in vitro [27] = details: human, liver microsomes
Mus musculus [28] = test: Antiarthritic activity in KRN passive serum-induced arthritis C57BL/6 mouse model assessed as reduction in proteoglycan loss at 0.1 to 10 mg/kg, po bid measured on day 7 at 2 hrs after first dose and 14 hrs after second dose; assay type: functional, organism-based; details: dose 0.1-10 mg/kg, time 7.0 day
[29] = molecular target: T1, Voltage-gated inwardly rectifying potassium channel KCNH2; remark: listed apart in the source
[30] = Inhibition of arachidonic acid-stimulated LTB4 release in skin inflammation 129S2/SvPasCrl mouse model at 0.03 mg/kg, po pretreated with compound for 4 hrs followed by arachidonic acid stimulation and measured after 1 hr; assay type: functional; details: time 5 hrs
in vivo [31] = details: Sprague-Dawley, rat, po, 3 mg/kg
[32] = Drug concentration in blood of arachidonic acid-induced skin inflammation 129S2/SvPasCrl mouse model at 0.03 mg/kg, po measured after 4 hrs; assay type: ADME, organism-based; details: read-out: Ct

## N[C@H](CO)Cn1ccc(-c2ccc(Oc3ncc(-c4cc[nH]n4)cc3F)cc2)n1
[1]
  half-life: 780 min
[2]
  IC50: 27 µM
[3]
  Vd: 6.9 L/kg
Mus musculus [4]
  Activity: Active
[5]
  clearance: 7.5 mL/min/kg
[6]
  solubility: 27 µg/mL (≈ 68.5 µM)
[7]
  inhibition in vivo at 0.3 mg/kg: 81%
Mus musculus [8]
  Activity: Active
In vivo [9]
  bioavailability: 57%
[10]
  inhibition in vivo at 3 mg/kg: 96%
[11]
  clearance: 7.3 mL/min/kg
[12]
  MRT: 28 h
Mus musculus [13]
  Activity: Active
In vivo [14]
  Vd: 5.5 L/kg
[15]
  concentration at 4 h: 108 nM
[16]
  IC50: 47 nM
[17]
  Cmax: 1180 nM
[18]
  inhibition in vivo at 0.3 mg/kg: 93%
[19]
  MRT: 16 h
[20]
  Vd: 1.6 L/kg
[21]
  AUC(0-inf): 15 µM·h
[22]
  inhibition in vivo at 3 mg/kg: 97%
[23]
  CLH: 6 µL/min/mg
physchem
  solubility: 180 µM (≈ 71 µg/mL)
In vivo [24]
  concentration at 2 h: 2600 nM
In vitro [25]
  Papp A→B: 12 ×10⁻⁶ cm/s
Mus musculus [26]
  Activity: Active
In vitro [27]
  microsomal CLint: < 25 µL/min/mg
Mus musculus [28]
  Activity: Active
[29]
  IC50: > 30 µM
[30]
  inhibition in vivo at 0.03 mg/kg: 74%
In vivo [31]
  AUC(0-inf): 3.87 µM·h
[32]
  concentration at 4 h: 79 nM
